Target: T1, ALK L1196M (Homo sapiens, UniProt Q9UM73, L1196M)
T1 construct: purchased Thermo Fisher Scientific (Life Technologies) SelectScreen
Test: SelectScreen LanthaScreen
Type: binding
Conditions: read-out: % displacement
Method in brief: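 NU5455 was profiled across the SelectScreen Broad panel of kinase activity and binding assays. Z'LYTE reactions such as CSF1R ran at apparent Km ATP, while the Adapta CAMK1 assay used ATP listed as 10. Values are given as percent.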

T1 sequence (Q9UM73 19-1620 L1196M): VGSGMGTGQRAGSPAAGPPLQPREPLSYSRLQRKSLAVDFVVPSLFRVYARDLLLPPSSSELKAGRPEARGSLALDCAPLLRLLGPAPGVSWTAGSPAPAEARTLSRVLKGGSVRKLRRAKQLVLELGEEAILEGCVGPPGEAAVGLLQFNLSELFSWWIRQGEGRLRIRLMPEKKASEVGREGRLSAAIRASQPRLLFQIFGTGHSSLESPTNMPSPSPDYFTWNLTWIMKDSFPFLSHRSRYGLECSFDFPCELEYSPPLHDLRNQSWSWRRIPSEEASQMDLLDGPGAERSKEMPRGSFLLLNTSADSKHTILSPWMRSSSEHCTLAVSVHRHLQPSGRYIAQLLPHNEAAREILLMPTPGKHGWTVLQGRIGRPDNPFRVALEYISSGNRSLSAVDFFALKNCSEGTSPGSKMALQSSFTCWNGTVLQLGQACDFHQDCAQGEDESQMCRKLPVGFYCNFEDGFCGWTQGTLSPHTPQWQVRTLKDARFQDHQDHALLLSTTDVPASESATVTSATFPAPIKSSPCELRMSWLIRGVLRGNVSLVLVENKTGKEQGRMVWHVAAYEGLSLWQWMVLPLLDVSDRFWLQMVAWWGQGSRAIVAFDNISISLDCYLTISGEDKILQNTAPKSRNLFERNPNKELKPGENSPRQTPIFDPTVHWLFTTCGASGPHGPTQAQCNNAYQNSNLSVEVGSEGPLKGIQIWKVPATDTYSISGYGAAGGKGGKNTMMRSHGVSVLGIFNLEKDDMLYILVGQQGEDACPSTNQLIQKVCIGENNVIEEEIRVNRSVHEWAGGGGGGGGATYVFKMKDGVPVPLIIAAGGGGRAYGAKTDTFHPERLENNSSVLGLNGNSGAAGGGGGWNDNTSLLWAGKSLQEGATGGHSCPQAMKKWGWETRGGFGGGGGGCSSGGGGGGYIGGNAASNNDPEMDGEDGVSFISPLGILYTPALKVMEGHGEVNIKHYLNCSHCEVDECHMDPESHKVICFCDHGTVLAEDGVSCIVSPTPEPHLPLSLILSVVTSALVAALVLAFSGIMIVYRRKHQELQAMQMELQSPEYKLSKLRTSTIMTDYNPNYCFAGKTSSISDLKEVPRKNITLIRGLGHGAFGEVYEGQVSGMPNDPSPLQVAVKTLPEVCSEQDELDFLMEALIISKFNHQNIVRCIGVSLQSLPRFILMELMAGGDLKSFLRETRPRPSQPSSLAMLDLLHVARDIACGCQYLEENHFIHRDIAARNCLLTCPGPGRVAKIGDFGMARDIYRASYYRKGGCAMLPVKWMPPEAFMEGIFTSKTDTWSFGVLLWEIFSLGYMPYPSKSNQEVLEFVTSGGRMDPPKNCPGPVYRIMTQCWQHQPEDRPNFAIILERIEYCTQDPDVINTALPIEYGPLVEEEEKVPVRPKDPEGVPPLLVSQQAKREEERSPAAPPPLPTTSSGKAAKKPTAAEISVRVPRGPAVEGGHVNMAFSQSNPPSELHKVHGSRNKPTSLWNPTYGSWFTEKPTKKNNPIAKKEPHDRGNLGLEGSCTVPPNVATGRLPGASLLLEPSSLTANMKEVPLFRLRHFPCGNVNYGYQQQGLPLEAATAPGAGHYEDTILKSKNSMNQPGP

CN(C(=O)CN1CCOCC1)c1ccc2sc3c(-c4cccc5c(=O)cc(N6CC7CCC(C6)O7)oc45)cccc3c2c1 [NU5455]
inhibition at 1 µM: -1.7%

From article PMC6934184, “Selective DNA-PKcs inhibition extends the therapeutic index of localized radiotherapy and chemotherapy” (The Journal of Clinical Investigation, 2019)
